Measured values: patent US20240398767A1, “INHIBITORS OF THE MTDH-SND1 PROTEIN COMPLEX FOR CANCER THERAPY” (The Trustees of Princeton University, priority 2021, published 2024)

Test system: E0771-OVA control (shCtrl) cells
Experiment: E0771-OVA shCtrl cells / OT-I splenocyte co-culture
Format: cell-based, mouse
Settings: 24 hr co-culture
Excerpt: For FIGS. 33B-33D, E0771-OVA cells with (shTap1/2) or without (shCtrl) Tap1/2 knockdown were co-cultured with OT-I splenocytes with the ratio of 1:10 (tumor cells:splenocytes). Data represent mean±SEM. n=3 independent experiments. Significance determined by one-way ANOVA analysis with Sidak's test for multiple comparisons.
FIG. 33B, 24 hr after co-culture, tumor cells were collected for examining OVA (H-2K^b-SIINFEKL) expression.
FIG. 33C, 24 hr after co-culture, tumor cells were collected for examining MHC-I expression.
FIG. 33D, 24 hr after co-culture, splenocytes were collected for examining CD137 expression.
MTDH-SND1 suppresses antigen presentation by reducing Tap1/2. To confirm that MTDH-SND1 drives immune evasion through suppressing the Tap1/2 pathway, antigen presentation-deficient cells were generated by knocking down Tap1/2^20. E0771-OVA cells were transduced with lentiviruses expressing Tap1/2-targeting shRNAs. Tap1/2 KD was confirmed by western blot (FIG. 33A), and antigen presentation deficiency upon Tap1/2 KD was also validated (FIGS. 33B, 33C). Next, shCtrl (control shRNA) or Tap1/2 KD cells were co-cultured with OT-I splenocytes together with vehicle or C26-A6 treatment.

## COc1ccc(Cl)cc1S(=O)(=O)Nc1cccn2nc(C)nc12 [Analog C26-A6]
  antigen presentation and T cell activation: significant increase
